Key:
[1] = system: BMP-6/ALK2/Hepcidin pathway; test: ALK2 off-target assay, hepcidin mRNA in HepG2 hepatocytes; format: cell-based, human; conditions: Homo sapiens; HepG2, 40 ng/ml BMP-6, 3 h; read-out: IC50, hepcidin mRNA expression
Method: In this study, LDN214117 (an ALK2 inhibitor available from Selleck Chemicals S7627) was included as a positive control, and vactosertib (an ALK5 inhibitor available from MedChem Express HY-19928) was included as a negative control.
HepG2 human hepatocytes (ATCC HB-8065) were seeded in EMEM (ATCC30-2003)+10% FBS in 96-well plate and allowed to grow overnight at 5% CO2 at 37° C. The next day, cells were pre-treated with selected compounds (Compound 01, 04 or 05) or one of the control compounds at various concentrations, or with vehicle (DMSO) for one hour. Cells were then stimulated with recombinant human BMP-6 (R&D Systems 507-BP-020) at a final concentration of 40 ng/ml, in the presence of test compound or DMSO for three hours. A no-BMP-6 stimulation condition was included for baseline hepcidin level measurement.
Hepcidin mRNA expression was measured by real-time RT-PCR with Cells-to-CT 1-Step TaqMan Kit (ThermoFisher A25603) following manufacturer's instructions. GAPDH levels were measured, and served as a normalization control. Hepcidin primer: TaqMan HAMP-FAM/MGB 20×(ThermoFisher 4331182); GAPDH primer: TaqMan GAPDH-VIC/MGB 20×(ThermoFisher 4326317E). Delta-delta Ct method was used to obtain relative Hepcidin expression.
The selected compounds and control compounds LDN214117 and vactosertib were tested at drug concentrations of 20 micromolar to 1.22 nanomolar at 4-fold serial dilution. All wells contained the same DMSO concentrations. IC50 values were calculated using nonlinear regression model with GraphPad Prism software. The results of the ALK-2 off-target assay are reported in Table 3B, where “++” indicates 0.1 μM<IC50≤1 μM and “+++” indicates […].

[2] = system: TGF-β1-induced SMAD signaling pathway; test: RD SMAD reporter (RDSR) assay; format: cell-based; conditions: Homo sapiens; 200 pg/ml rhTGF-beta1, 24 h
Excerpt: TGF-beta (also referred to as TGF-β1) is a multifunctional, highly conserved cytokine with many key functions in development, cell growth and apoptosis, and plays a key role in the tissue repair response and functions as a potent immune modulator. TGF-β signaling is triggered when the activated TGF-β homodimer binds to the TGF-β receptor 2, which in turn leads to the recruitment and phosphorylation of TGF-β receptor 1 (ALK5). Activated TGF-β receptor 1 phosphorylates the signal transduction molecules SMAD2 and SMAD3. These bind to common mediator SMAD4 and translocate to the nucleus where they bind to short conserved DNA sequences called the SMAD binding element and induce the transcription of various target genes.
A stable cellular reporter, the RD SMAD reporter (RDSR), was generated to test the ability of certain compounds disclosed herein to inhibit the canonical TGF-β1-induced SMAD signaling pathway in a cellular context. The RD SMAD reporter (RDSR) cell line was generated by stably integrating the SMAD cellular reporter plasmid (Promega, pGL4.48[luc2P/SBE/Hygro]) into the human rhabdomyosarcoma cell line RD (ATCC, CCL-136). Once SMAD signaling was triggered with, for example, the addition of TGF-beta1, receptor-activated SMADs bind the SMAD binding elements (SBEs) leading to the expression of intracellular luciferase.
The rhabdomyosarcoma line RD (ATCC, CCL-136) was transfected with a SMAD reporter vector (Promega, E3671) and a polyclonal stable cell line was selected using hygromycin B. The transfected vector contained three copies of a Smad-binding element (SBE) that drives transcription of the luciferase reporter gene luc2P (Photinus pyralis). luc2P is a synthetically-derived luciferase sequence with humanized codon optimization that is designed for high expression and reduced anomalous transcription. The luc2P gene contains hPEST, a protein destabilization sequence, which allows luc2P protein levels to respond more quickly than those of luc2 to induction of transcription. The intracellular luciferase is quantified by the addition of equal volume (100 μl) of ONE-GLO substrate (Promega, E6120) and read within ten minutes on the Envision plate reader. The stable RDSR cell line was tested by evaluating the response to human TGF-beta1 (R&D Systems, 7754-BH-005) as well as myostatin (R&D Systems, 788-G8-010/CF) in a concentration-dependent manner after twenty-four hours of stimulation. […] For compound evaluation, the tool compounds (vactosertib and PF-06952229 (a TGFβR1 inhibitor available from MedChem Express HY-136244) were included as positive controls) or test compounds were incubated with cells for one hour at 37° C. then stimulated with 200 pg/ml rhTGF-beta1 for twenty-four hours. The activity of the reporter was determined with the addition of ONE-GLO (Promega) substrate, and luminescence counts were collected on the Envision plate reader (Perkin Elmer). The IC50 or EC50 was calculated using nonlinear regression curve fitting with graph pad prism software.
A comparative RDSR analysis was performed using IC50 values for selected compounds and standards obtained using the RDSR assay protocol described in Example 3.
The tool compounds vactosertib (an ALK5 inhibitor sourced from MedChem Express, HY-19928) and PF-06952229 (a TGFβR1 inhibitor) were included in the study as comparator compounds. Selected example compounds or comparator compounds were incubated with cells for one hour at 37° C. then stimulated with 200 pg/ml rhTGF-beta1 for twenty-four hours. The activity of the reporter was determined by adding ONE-GLO (Promega) substrate, and collecting luminescence counts on the Envision plate reader (Perkin Elmer).
Each of the example compounds and comparator compounds were tested at drug concentrations of from 20 micromolar to 1 nanomolar, and the IC50 value for each was calculated using Graph Pad Prism software. DMSO was used as a negative control and all wells contained normalized DMSO concentrations. […]

JAK signaling = test: JAK selectivity assay, HEK blue IL-12 reporter; format: cell-based; conditions: HEK-Blue, 24 h, 12.5 ng/ml IL-12, 24 h
Method: The cells were purchased from Invivogen (Catalog Nr: hkb-il12) and maintained according to vendor instructions. On the day of the experiment, cells were harvested by repeated tapping of the flask to shake loose the cells attached to the bottom of the flask. Then, cells were harvested, washed and resuspended in DMEM media supplemented with 10% fetal calf serum. 30 Microliters of cell suspension was seeded into a 384-well tissue culture-coated plate containing approximately 10,000 total cells. […] Using the ECHO “Dose Response” software, the test compound was added in duplicate wells with a 3-fold dilution curve. DMSO was back-filled to normalize the DMSO across all wells. […] After 30 minutes of incubation at room temperature, the optical density was measured at 620 nanometer using the Perkin Elmer Envision plate reader. A color change can be detected at this wavelength when secreted alkaline phosphatase, which is triggered by IL-12 signaling, is present in the supernatant. […]

Row | SMILES | IC50 [1] [nM] | EC50 [2] [nM] | IC50 (JAK signaling) [nM]
1 | Cc1cccc2c(Nc3ccnc(Nc4ccc(N5CCOCC5)cc4)c3)cnnc12 [Compound 05, N4-(8-methylcinnolin-4-yl)-N2-[4-(morpholin-4-yl)phenyl]pyridine-2,4-diamine] | 100 to 1000 | < 50 | 
2 | Clc1cccc2c(Nc3ccnc(Nc4cccc(N5CCOCC5)c4)c3)cnnc12 [Compound 04, N4-(8-chlorocinnolin-4-yl)-N2-[3-(morpholin-4-yl)phenyl]pyridine-2,4-diamine] | 100 to 1000 | < 50 | 3700
3 | Cc1cccc(-c2[nH]c(CNc3ccccc3F)nc2-c2ccc3ncnn3c2)n1 [Vactosertib, vactosertib, reference compound] | ≥ 1000 |  | 18500
4 | Cc1nn(CC(F)(F)F)cc1Nc1cc(Nc2cnnc3c(C)cccc23)ccn1 [Compound 01, N2-[3-methyl-1-(2,2,2-trifluoroethyl)-1H-pyrazol-4-yl]-N4-(8-methylcinnolin-4-yl)pyridine-2,4-diamine] | ≥ 1000 | < 50 | 3800

— patent publication US20240197729A1, “ALK-5 Inhibitors and Uses Thereof” (Sumitomo Pharma Oncology, Inc., priority 2021, published 2024)
